The results in this text go back to publication PMC3292874 (Bioconjugate Chemistry, 2011).

The target in the test is PC-PLC (phosphatidylcholine-specific phospholipase C) (Bacillus cereus, UniProt P09598). The test can be described thus: fluorescence of dequenched Pyro-PtdEtn-BHQ hydrolysis, initial rate. Type of test: biochemical.
Chain of PC-PLC (phosphatidylcholine-specific phospholipase C) (P09598 39-283 limits assumed): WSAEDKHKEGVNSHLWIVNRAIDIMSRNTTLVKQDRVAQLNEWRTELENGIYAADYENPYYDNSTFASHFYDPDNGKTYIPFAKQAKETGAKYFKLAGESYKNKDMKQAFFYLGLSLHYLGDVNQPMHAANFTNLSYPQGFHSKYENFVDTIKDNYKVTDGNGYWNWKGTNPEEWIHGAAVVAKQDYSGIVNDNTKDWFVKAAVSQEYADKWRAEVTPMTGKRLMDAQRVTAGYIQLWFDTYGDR

The term IC50 denotes the concentration needed to halve the response being measured. Higher therefore signals a need for much substance. For `S=C(S)OC1CC2CC1C1CCCC21` (stereo not shown) [D609], the midpoint of inhibition, the IC50, lay at 34 ± 8 µM.
